Activity calls are given as the source filed them. The rule behind the calls is not given here.
Experiments:
MGC-803 [1] = assay: Induction of apoptosis in human MGC-803 cells assessed as down regulation of XIAP expression at 50 to 150 nmol/L measured after 48 hrs by Western blot analysis; format: functional, cell-based; details: dose 50-150 nmol/L
MGC-803 [2] = assay: Induction of morphological changes in human MGC-803 cells assessed as nuclear condensation at 50 to 150 nmol/L measured after 48 hrs by DAPI staining based assay; format: functional, cell-based; details: dose 50-150 nmol/L
MGC-803 [3] = assay: Induction of apoptosis in human MGC-803 cells assessed as increase in cleaved PARP expression at 150 nmol/L measured after 24 hrs in presence of NEDDylation inhibitor MLN4924 by Western blot analysis; format: functional, cell-based
MGC-803 [4] = assay: Induction of apoptosis in human MGC-803 cells assessed as late apoptotic cells at 100 nmol/L measured after 48 hrs by Annexin V-FITC/propidium iodide staining based flow cytometry (reference value: 5.6%); format: functional
MGC-803 [5] = assay: Cell cycle arrest in human MGC-803 cells assessed as accumulation at G1 phase at 100 nmol/L measured after 48 hrs by propidium iodide staining based flow cytometry (reference value: 40.61%); format: functional
MGC-803 [6] = assay: Induction of morphological changes in human MGC-803 cells assessed as increase in cell debris at 50 to 150 nmol/L measured after 48 hrs by bright field microscopic analysis; format: functional, cell-based; details: dose 50-150 nmol/L

## COc1ccc(CN(C(=O)Cc2cccs2)c2cc(OC)c(OC)c(OC)c2)cc1
MGC-803 [1]
  Activity: Active
MGC-803 [2]
  Activity: Active
MGC-803 [3]
  Activity: inactive
MGC-803 [4]
  Activity: 23.2%
MGC-803 [5]
  Activity: 37.76%
MGC-803 [6]
  Activity: Active

Source: ChEMBL document CHEMBL4765275, “Discovery of novel tertiary amide derivatives as NEDDylation pathway activators to inhibit the tumor progression in vitro and in vivo” (Eur J Med Chem, 2020)
